In patent publication US7125990B2, “Imidazolyl derivatives as corticotropin releasing factor inhibitors” (Bristol-Myers Squibb COmpany, priority 2001, dated 2006):

Biological target: T1, CRF1 receptors (Homo sapiens, UniProt P34998)
T1 construct: endogenous in cells; host or cells: IMR-32 cells, transformed with 2.5 µM 5'-bromo-2'-deoxyuridine for 10 days; membrane preparation
T1 sequence (P34998 24-415): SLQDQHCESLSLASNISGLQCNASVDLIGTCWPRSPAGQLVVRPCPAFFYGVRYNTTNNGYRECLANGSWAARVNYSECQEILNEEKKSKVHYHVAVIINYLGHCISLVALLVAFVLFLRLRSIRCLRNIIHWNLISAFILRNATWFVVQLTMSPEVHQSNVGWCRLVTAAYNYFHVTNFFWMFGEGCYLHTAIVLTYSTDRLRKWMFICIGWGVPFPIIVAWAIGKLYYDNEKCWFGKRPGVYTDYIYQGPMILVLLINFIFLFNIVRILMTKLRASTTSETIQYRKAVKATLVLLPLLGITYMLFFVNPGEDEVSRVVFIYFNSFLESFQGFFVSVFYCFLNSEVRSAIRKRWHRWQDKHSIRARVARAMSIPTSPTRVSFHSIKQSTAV
Assay: CRF1 receptor radioligand binding assay ([125I]-oCRF competition, IMR-32 cell membranes)
Settings: IMR-32 cell membranes, [125I]-oCRF 100 pM; read-out: Ki (CRF-1R)
Description: CRF1 receptor antagonists, by occupying the same receptors, blocks the accessibility of the receptors to CRF, a hypothalamic factor mediating body's responses to physiological and psychological stress. The following radioligand binding assay examines the ability of the antagonists to bind the CRF1 receptors by assessing their ability to compete with binding of CRF to the receptors in cell membrane.
Tissue culture and membrane preparation. IMR-32 cells were grown at 37° C. in 5% CO2 as a monolayer in medium consisting of MEM supplemented with 10% heat-inactivated fetal bovine serum, 0.1 mM nonessential amino acids, 1 mM sodium pyruvate and 2 mM L-glutamine. […] After transformation, cells were rinsed twice with phosphate-buffered saline, and incubated for 10–15 min. at 4° C. in homogenization buffer consisting of 50 mM Tris (pH 7.2), 10 mM MgCl2 and 2 mM EGTA. Cells were transferred from plates to polypropylene tubes (16×100 mm), homogenized and centrifuged at 32,000×g for 15 min. Pellets were resuspended by homogenization in buffer and centrifuged at 32,000×g for 15 min. Pellets were resuspended in homogenization buffer then stored at −80° C. until needed.
Radioligand binding assays. […] The assay buffer consisted of 50 mM Tris (pH 7.2), 10 mM MgCl2, 0.5% BSA, 0.005% Triton X-100, 10 μg/mL aprotinin and 10 μg/mL leupeptin. Assays were stopped by addition of ice-cold wash buffer (50 mM Tris, pH 7.4 and 0.2% BSA). Filtration over glass fiber filters (Whatman GF/B) previously soaked in 50 mM Tris, pH 7.2 and 1% BSA was carried out using a Brandel cell harvester. Filters were washed with 10 mL of ice-cold wash buffer. Non-specific binding was defined with 10 μM oCRF. IC50 values for oCRF and test compounds were calculated by nonlinear regression using a one-site binding curve (GraphPad Prism).

Row | Ki [nM] | Compound
1 | < 10000 | CCCN(CC1CC1)C(=O)c1c(C(F)(F)F)nc2n1CCCN2c1c(C)cc(C)cc1C [Example 55, 2-Trifluoromethyl-8-(2,4,6-trimethyl-phenyl)-5,6,7,8-tetrahydro-imidazo[1,2a]pyrimidine-3-carboxylic acid cyclopropylmethyl-propyl-amide]
2 | < 10000 | CCCN(CCc1ccccc1)C(=O)c1c(C)nc2n1CCCN2c1c(C)cc(C)cc1C [Example 56, 2-Methyl-8-(2,4,6-trimethyl-phenyl)-5,6,7,8-tetrahydro-imidazo[1,2-a]pyrimidine-3-carboxylic acid phenethyl-propyl-amide]
3 | < 10000 | CCCN(CC1CCC1)C(=O)c1c(C)nc2n1CCCN2c1c(C)cc(C)cc1C [Example 57, 2-Methyl-8-(2,4,6-trimethyl-phenyl)-5,6,7,8-tetrahydro-imidazo[1,2-a]pyrimidine-3-carboxylic acid cyclobutylmethyl-propyl-amide]
4 | < 10000 | Cc1cc(C)c(N2CCCn3c2nc(C)c3C(=O)N(CC2CC2)CC2CC2)c(C)c1 [Example 58, 2-Methyl-8-(2,4,6-trimethyl-phenyl)-5,6,7,8-tetrahydro-imidazo[1,2-a]pyrimidine-3-carboxylic acid bis-cyclopropylmethyl-amide]
5 | < 100 | CCCN(Cc1c(C(F)(F)F)nc2n1CCCN2c1c(C)cc(C)cc1C)CC1CC1 [Example 59, Cyclopropylmethyl-propyl-[2-trifluoromethyl-8-(2,4,6-trimethyl-phenyl)-5,6,7,8-tetrahydro-imidazo[1,2-a]pyrimidin-3-ylmethyl]-amine]
6 | < 1000 | Cc1cc(C)c(N2CCCn3c2nc(C(F)(F)F)c3CN2CC=CCC2)c(C)c1 [Example 60, 3-(3,6-Dihydro-2H-pyridin-1-ylmethyl)-2-trifluoromethyl-8-(2,4,6-trimethyl-phenyl)-5,6,7,8-tetrahydro-imidazo[1,2-a]pyrimidine]
7 | < 1000 | Cc1cc(C)c(N2CCCn3c2nc(C(F)(F)F)c3CN2CCSCC2)c(C)c1 [Example 61, 3-Thiomorpholin-4-ylmethyl-2-trifluoromethyl-8-(2,4,6-trimethyl-phenyl)-5,6,7,8-tetrahydro-imidazo[1,2-a]pyrimidine]
8 | < 1000 | Cc1cc(C)c(N2CCCn3c2nc(C(F)(F)F)c3CN2CCCCC2)c(C)c1 [Example 62, 3-Piperidin-1-ylmethyl-2-trifluoromethyl-8-(2,4,6-trimethyl-phenyl)-5,6,7,8-tetrahydro-imidazo[1,2-a]pyrimidine]
9 | < 1000 | Cc1cc(C)c(N2CCCn3c2nc(C(F)(F)F)c3CN2CCCCC2C)c(C)c1 (centres unmarked) [Example 63, 3-(2-Methyl-piperidin-1-ylmethyl)-2-trifluoromethyl-8-(2,4,6-trimethyl-phenyl)-5,6,7,8-tetrahydro-imidazo[1,2-a]pyrimidine]
10 | < 1000 | Cc1cc(C)c(N2CCCn3c2nc(C(F)(F)F)c3CN2CCC(C)CC2)c(C)c1 [Example 64, 3-(4-Methyl-piperidin-1-ylmethyl)-2-trifluoromethyl-8-(2,4,6-trimethyl-phenyl)-5,6,7,8-tetrahydro-imidazo[1,2-a]pyrimidine]
11 | < 1000 | Cc1cc(C)c(N2CCCn3c2nc(C(F)(F)F)c3CN(C)Cc2ccccc2)c(C)c1 [Example 65, Benzyl-methyl-[2-trifluoromethyl-8-(2,4,6-trimethyl-phenyl)-5,6,7,8-tetrahydro-imidazo[1,2-a]pyrimidin-3-ylmethyl]-amine]
12 | < 1000 | Cc1cc(C)c(N2CCCn3c2nc(C(F)(F)F)c3CN(C)CCc2ccccc2)c(C)c1 [Example 66, Methyl-phenethyl-[2-trifluoromethyl-8-(2,4,6-trimethyl-phenyl)-5,6,7,8-tetrahydro-imidazo[1,2-a]pyrimidin-3-ylmethyl]-amine]
13 | < 100 | C=CCN(CC=C)Cc1c(C(F)(F)F)nc2n1CCCN2c1c(C)cc(C)cc1C [Example 67, Diallyl-[2-trifluoromethyl-8-(2,4,6-trimethyl-phenyl)-5,6,7,8-tetrahydro-imidazo[1,2-a]pyrimidin-3-ylmethyl]-amine]
14 | < 1000 | CCCN(CCC)Cc1c(C(F)(F)F)nc2n1CCCN2c1c(C)cc(C)cc1C [Example 68, Dipropyl-[2-trifluoromethyl-8-(2,4,6-trimethyl-phenyl)-5,6,7,8-tetrahydro-imidazo[1,2-a]pyrimidin-3-ylmethyl]-amine]
15 | < 1000 | CCCCN(C)Cc1c(C(F)(F)F)nc2n1CCCN2c1c(C)cc(C)cc1C [Example 69, Butyl-methyl-[2-trifluoromethyl-8-(2,4,6-trimethyl-phenyl)-5,6,7,8-tetrahydro-imidazo[1,2-a]pyrimidin-3-ylmethyl]-amine]
16 | < 1000 | CCCCN(CC)Cc1c(C(F)(F)F)nc2n1CCCN2c1c(C)cc(C)cc1C [Example 70, Butyl-ethyl-[2-trifluoromethyl-8-(2,4,6-trimethyl-phenyl)-5,6,7,8-tetrahydro-imidazo[1,2-a]pyrimidin-3-ylmethyl]-amine]
17 | < 100 | C=C(C)CN(CC)Cc1c(C(F)(F)F)nc2n1CCCN2c1c(C)cc(C)cc1C [Example 71, Ethyl-(2-methyl-allyl)-[2-trifluoromethyl-8-(2,4,6-trimethyl-phenyl)-5,6,7,8-tetrahydro-imidazo[1,2-a]pyrimidin-3-ylmethyl]-amine]
18 | < 1000 | Cc1cc(C)c(N2CCCn3c2nc(C(F)(F)F)c3CN2CCC(c3ccccc3)C2)c(C)c1 (centres unmarked) [Example 72, 3-(3-Phenyl-pyrrolidin-1-ylmethyl)-2-trifluoromethyl-8-(2,4,6-trimethyl-phenyl)-5,6,7,8-tetrahydro-imidazo[1,2-a]pyrimidine]
19 | < 10 | Cc1cc(C)c(N2CCCn3c2nc(C(F)(F)F)c3CN(CC2CC2)CC(F)(F)F)c(C)c1 [Example 73, Cyclopropylmethyl-(2,2,2-trifluoro-ethyl)-[2-trifluoromethyl-8-(2,4,6-trimethyl-phenyl)-5,6,7,8-tetrahydro-imidazo[1,2-a]pyrimidin-3-ylmethyl]-amine]
20 | < 100 | Cc1cc(C)c(N2CCCn3c2nc(C(F)(F)F)c3CN(CC2CC2)CC(F)(F)C(F)(F)F)c(C)c1 [Example 74, Cyclopropylmethyl-(2,2,3,3,3-pentafluoro-propyl)-[2trifluoromethyl-8-(2,4,6-trimethyl-phenyl)-5,6,7,8-tetrahydro-imidazo[1,2-a]pyrimidin-3-ylmethyl]-amine]
21 | < 100 | CCN(Cc1c(C(F)(F)F)nc2n1CCCN2c1c(C)cc(C)cc1C)CC1CC1 [Example 75, Cyclopropylmethyl-ethyl-[2-trifluoromethyl-8-(2,4,6-trimethyl-phenyl)-5,6,7,8-tetrahydro-imidazo[1,2-a]pyrimidin-3-ylmethyl]-amine]
22 | < 100 | Cc1cc(C)c(N2CCCn3c2nc(C(F)(F)F)c3CN(CC2CCC2)CC(F)(F)F)c(C)c1 [Example 76, Cyclobutylmethyl-(2,2,2-trifluoro-ethyl)-[2-trifluoromethyl-8-(2,4,6-trimethyl-phenyl)-5,6,7,8-tetrahydro-imidazo[1,2-a]pyrimidin-3-ylmethyl]-amine]
23 | < 100 | CCCN(Cc1c(C(F)(F)F)nc2n1CCCN2c1c(C)cc(C)cc1C)CC1CCC1 [Example 77, Cyclobutylmethyl-propyl-[2-trifluoromethyl-8-(2,4,6-trimethyl-phenyl)-5,6,7,8-tetrahydro-imidazo[1,2-a]pyrimidin-3-ylmethyl]-amine]
24 | < 1000 | CCCN(CCC(F)(F)F)Cc1c(C(F)(F)F)nc2n1CCCN2c1c(C)cc(C)cc1C [Example 78, Propyl-[2-trifluoromethyl-8-(2,4,6-trimethyl-phenyl)-5,6,7,8-tetrahydro-imidazo[1,2-a]pyrimidin-3-ylmethyl]-(3,3,3-trifluoro-propyl)-amine]
25 | < 100 | CCCN(Cc1c(C(F)(F)F)nc2n1CCCN2c1c(C)cc(C)cc1C)CC(F)(F)F [Example 79, Propyl-(2,2,2-trifluoro-ethyl)-[2-trifluoromethyl-8-(2,4,6-trimethyl-phenyl)-5,6,7,8-tetrahydro-imidazo[1,2-a]pyrimidin-3-ylmethyl]-amine]
26 | < 1000 | CCCN(Cc1c(C(F)(F)F)nc2n1CCCN2c1c(C)cc(C)cc1C)CC(F)(F)C(F)(F)F [Example 80, (2,2,3,3,3-Pentafluoro-propyl)-propyl-[2-trifluoromethyl-8-(2,4,6-trimethyl-phenyl)-5,6,7,8-tetrahydro-imidazo[1,2-a]pyrimidin-3-ylmethyl]-amine]
